Measured values taken from ChEMBL document CHEMBL6120940, “Discovery of N-Aryl-N'-[4-(aryloxy)cyclohexyl]squaramide-Based Inhibitors of LXR/SREBP-1c Signaling Pathway Ameliorating Steatotic Liver Disease: Navigating the Role of SIRT6 Activation” (J Med Chem, 2024).
Activity calls are given as the source filed them. No cut-off for these calls is given here.

Tests used:
[1] = Cmax in 16 hrs fasted ICR mouse at 20 mg/kg, po measured upto 8 hrs by LC-MS/MS analysis; format: ADME, organism-based; settings: in vivo
Hepatocyte [2] = assay: Lipid lowering effect on palmitic acid induced lipid accumulation in mouse Hepatocyte at 5 uM incubated for 30 mins by Oil red O staining based analysis; format: functional, cell-based
HepG2 [3] = assay: Downregulation of LXR level in human HepG2 cells transfected with SIRT6 SiRNA at 10 uM preincubated for 30 mins followed by T0901317 addition and measured after 12 hrs; format: functional, cell-based; settings: time 12.5 hrs
Hepatocyte [4] = assay: Inhibition of LXR-induced fat accumulation in mouse Hepatocyte at 10 uM incubated for 30 mins followed by T0901317 addition by Oil red O staining based analysis; format: functional, cell-based
HepG2 [5] = assay: Downregulation of ACACA expression in human HepG2 cells at 5 uM pretreated with compound for 30 mins followed by T0901317 addition and measured after 12 hrs in presence of compound C by immunoblot analysis; format: functional, cell-based; settings: time 12.5 hrs
HepG2 [6] = assay: Downregulation of ACACA mRNA level in human HepG2 cells at 10 uM pretreated with compound for 30 mins followed by T0901317 addition and measured after 12 hrs by RT-qPCR analysis; format: functional, cell-based; settings: time 12.5 hrs
[7] = MRT infinity in 16 hrs fasted ICR mouse at 20 mg/kg, po measured upto 8 hrs by LC-MS/MS analysis; format: ADME, organism-based; settings: in vivo
Mus musculus [8] = assay: Anti-lipogenic activity against high fat died induced male C57BL/6J mouse obesity model assessed as reduction liver tissue size at 15 mg/kg, po administered three times per week and measured for 5 weeks; format: functional, organism-based
Hepatocyte [9] = assay: Effect on Ppara gene expression in mouse hepatocyte; format: functional, cell-based
Hepatocyte [10] = assay: Effect on Acad-1 gene expression in mouse hepatocyte; format: functional, cell-based
HepG2 [11] = assay: Cytotoxicity against human HepG2 cells at >30 uM measured after 24 hrs by CCK-8 method; format: functional, cell-based
HepG2 [12] = assay: Downregulation of SCD mRNA level in human HepG2 cells at 10 uM pretreated with compound for 30 mins followed by GW2935 addition and measured after 12 hrs by RT-qPCR analysis; format: functional, cell-based; settings: time 12.5 hrs
Mus musculus [13] = assay: Anti-lipogenic activity against high fat died induced male C57BL/6J mouse obesity model assessed as downregulation of Cxcl10 mRNA level at 15 mg/kg, po administered three times per week and measured after 5 weeks by RT-qPCT analysis; format: functional, organism-based
[14] = AUC infinity in 16 hrs fasted ICR mouse at 20 mg/kg, po measured upto 8 hrs by LC-MS/MS analysis; format: ADME, organism-based; settings: in vivo
HepG2 [15] = assay: Downregulation of SREBP-1c expression level in human HepG2 cells at 10 uM pretreated with compound for 30 mins followed by T0901317 addition and measured after 12 hrs by immunocytochemical analysis; format: functional, cell-based; settings: time 12.5 hrs
Mus musculus [16] = assay: Anti-lipogenic activity against high fat died induced male C57BL/6J mouse obesity model assessed as downregulation of F4/80 mRNA level at 15 mg/kg, po administered three times per week and measured after 5 weeks by RT-qPCT analysis; format: functional, organism-based
Mus musculus [17] = assay: Anti-lipogenic activity against high fat died induced male C57BL/6J mouse obesity model assessed as effect on body weight at 15 mg/kg, po administered three times per week and measured for 5 weeks; format: functional, organism-based
HepG2 [18] = assay: Effect on SREBP-1a in human HepG2 cells at 10 uM pretreated with compound for 30 mins followed by T0901317 addition and measured after 12 hrs by immunoblot analysis; format: functional, cell-based; settings: time 12.5 hrs
[19] = Terminal half life in 16 hrs fasted ICR mouse at 20 mg/kg, po measured upto 8 hrs by LC-MS/MS analysis; format: ADME, organism-based; settings: in vivo, read-out: beta t1/2 (converted)
[20] = Metabolic stability in human liver microsomes at 1 uM measured after 30 mins in presence of NADPH regeneration system by LC-MS/MS analysis; format: ADME, Microsome; settings: read-out: Stability
HepG2 [21] = assay: Downregulation of ACACA level in human HepG2 cells at 10 uM preincubated for 30 mins followed by OSS128167 addition and measured after 12 hrs; format: functional, cell-based; settings: time 12.5 hrs
HepG2 [22] = assay: Downregulation of SREBP-1c expression level in nucleus of human HepG2 cells at 10 uM pretreated with compound for 30 mins followed by T0901317 addition and measured after 12 hrs by immunoblot analysis; format: functional, cell-based; settings: time 12.5 hrs
HepG2 [23] = assay: Downregulation of FASN mRNA level in human HepG2 cells at 10 uM pretreated with compound for 30 mins followed by […] addition and measured after 12 hrs by RT-qPCR analysis; format: functional, cell-based; settings: time 12.5 hrs
Mus musculus [24] = assay: Anti-lipogenic activity against high fat died induced male C57BL/6J mouse obesity model assessed as reduction in lipid droplet formation at 15 mg/kg, po administered three times per week and measured for 5 weeks by H and E staining based analysis; format: functional, organism-based
HepG2 [25] = assay: Downregulation of LXR level in human HepG2 cells at 10 uM preincubated for 30 mins followed by OSS128167 addition and measured after 12 hrs; format: functional, cell-based; settings: time 12.5 hrs
Mus musculus [26] = assay: Anti-lipogenic activity against high fat died induced male C57BL/6J mouse obesity model assessed as downregulation of Fasn level at 15 mg/kg, po administered three times per week and measured after 5 weeks by RT-qPCT analysis; format: functional, organism-based
Mus musculus [27] = assay: Anti-lipogenic activity against high fat died induced male C57BL/6J mouse obesity model assessed as downregulation of Ccl2 mRNA level at 15 mg/kg, po administered three times per week and measured after 5 weeks by RT-qPCT analysis; format: functional, organism-based
[28] = Metabolic stability in rat liver microsomes at 1 uM measured after 30 mins in presence of NADPH regeneration system by LC-MS/MS analysis; format: ADME, Microsome; settings: read-out: Stability
HepG2 [29] = assay: Downregulation of LXRalpha expression level in human HepG2 cell lysate at 10 uM preincubated with compound for 30 mins followed by T0901317 addition and measured after 24 hrs by immunoblot analysis; format: functional, subcellular; settings: time 24.5 hrs
HepG2 [30] = assay: Downregulation of SCD mRNA level in human HepG2 cells at 10 uM pretreated with compound for 30 mins followed by T0901317 addition and measured after 12 hrs by RT-qPCR analysis; format: functional, cell-based; settings: time 12.5 hrs

## COc1ccccc1Nc1c(N[C@H]2CC[C@H](Oc3ccc([N+](=O)[O-])cc3)CC2)c(=O)c1=O
[1]
  Cmax: 2300 ng/mL
Hepatocyte [2]
  Activity: Active
HepG2 [3]
  Activity: inactive
Hepatocyte [4]
  inhibition: Active
HepG2 [5]
  Activity: inactive
HepG2 [6]
  Activity: Active
[7]
  MRT inf: 1.6 h
Mus musculus [8]
  Activity: Active
Hepatocyte [9]
  Activity: inactive
Hepatocyte [10]
  Activity: inactive
HepG2 [11]
  Activity: Active
HepG2 [12]
  Activity: Active
Mus musculus [13]
  Activity: Active
[14]
  AUC(0-inf): 2890 ng·h/mL
HepG2 [15]
  Activity: Active
Mus musculus [16]
  Activity: Active
Mus musculus [17]
  Activity: inactive
HepG2 [18]
  Activity: inactive
[19]
  half-life: 1.4 h
[20]
  remaining at 0.5 h, 1 µM: 34.2%
HepG2 [21]
  Activity: inactive
HepG2 [22]
  Activity: Active
HepG2 [23]
  Activity: Active
Mus musculus [24]
  Activity: Active
HepG2 [25]
  Activity: inactive
Mus musculus [26]
  Activity: Active
Mus musculus [27]
  Activity: Active
[28]
  remaining at 0.5 h, 1 µM: 32.5%
HepG2 [29]
  Activity: Active
HepG2 [30]
  Activity: Active
